# Results from the supplement of paper PMC10307832.
# Columns and labels:
# Experiment in all cases: relative viability (nuclei count vs DMSO), 5 days (fraction); higher = more cells survive
# [1] = compound: C1CCC(CC1)N(CCNCCC2=C3C(=C(C=C2)O)NC(=O)CO3)C(=O)CCNCCC4=CC(=C(C=C4)Cl)Cl [AZ505] + COc1cc2c(Oc3ccc(NC(=O)C4(C(=O)Nc5ccc(F)cc5)CC4)cc3F)ccnc2cc1OCCCN1CCOCC1 [Foretinib] (partner 0.25 µM)
# Summary of the method: (§1)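 One day after seeding in 1536-well plates, lung cancer cell lines were dosed by pin tool. Dosing was either single-drug or a fixed anchor-drug dose plus five library-drug doses (not always all listed) in √10 steps. After 5 days, nuclei were stained in one fix-and-stain step and counted on 4× images, and relative viability is the nuclei count of treated wells over that of vehicle wells, given as the median of duplicate plates.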
# [2] = compound: C1CCC(CC1)N(CCNCCC2=C3C(=C(C=C2)O)NC(=O)CO3)C(=O)CCNCCC4=CC(=C(C=C4)Cl)Cl [AZ505] + Nc1nc2[nH]cc(CCc3ccc(C(=O)N[C@@H](CCC(=O)O)C(=O)O)cc3)c2c(=O)[nH]1 [Pemetrexed] (partner 0.2 µM)
# Summary of the method: as §1
# [3] = compound: Cn1c(=O)n(-c2ccc(C(C)(C)C#N)cc2)c2c3cc(-c4cnc5ccccc5c4)ccc3ncc21 [Dactolisib] + C[C@@H](Oc1cc(-c2cnn(C3CCNCC3)c2)cnc1N)c1c(Cl)ccc(F)c1Cl [Crizotinib] (partner 1 µM)
# Summary of the method: as §1
# [4] = compound: Cn1c(=O)n(-c2ccc(C(C)(C)C#N)cc2)c2c3cc(-c4cnc5ccccc5c4)ccc3ncc21 [Dactolisib] + CC(C)C[C@H](NC(=O)[C@H](Cc1ccccc1)NC(=O)c1cnccn1)B(O)O [Bortezomib] (partner 0.002 µM)
# Summary of the method: as §1
cell line,measurement,setting,value
UMC-11,relative viability,[1]; first compound 0.08 µM,0.975
same,relative viability,[1]; first compound 0.253 µM,1.15
same,relative viability,[1]; first compound 0.8 µM,0.922
same,relative viability,[1]; first compound 2.53 µM,1.09
same,relative viability,[1]; first compound 8 µM,1.11
same,relative viability,[2]; first compound 0.08 µM,0.757
same,relative viability,[2]; first compound 0.253 µM,0.714
same,relative viability,[2]; first compound 0.8 µM,0.705
same,relative viability,[2]; first compound 2.53 µM,0.901
same,relative viability,[2]; first compound 8 µM,0.894
same,relative viability,[3]; first compound 0.002 µM,0.556
same,relative viability,[3]; first compound 0.006325 µM,0.585
same,relative viability,[3]; first compound 0.02 µM,0.403
same,relative viability,[3]; first compound 0.06325 µM,0.275
same,relative viability,[3]; first compound 0.2 µM,0.155
same,relative viability,[4]; first compound 0.002 µM,0.732
same,relative viability,[4]; first compound 0.006325 µM,0.649
same,relative viability,[4]; first compound 0.02 µM,0.57
same,relative viability,[4]; first compound 0.06325 µM,0.261
same,relative viability,[4]; first compound 0.2 µM,0.18
